Patent publication US20230148184A1, “COMPOUNDS AND METHODS FOR MODULATING SPLICING” (REMIX THERAPEUTICS INC., priority 2020, published 2023)

How the values were obtained:
Type in all cases: cell-based
Target C CJ mRNA = assay: Gene panel canonical junction qPCR assay, Target C; details: decrease in CJ mRNA levels, RT-qPCR
Protocol: (§1) Compounds described herein were used to modulate RNA transcript abundance in cells. The expression of a target mRNA was measured by detecting the formation of an exon-exon junction in the canonical transcript (CJ). A compound mediated exon-inclusion event was detected by observing an increase in formation of a new junction with an alternative exon (AJ). Real-time qPCR assays were used to detect these splicing switches and interrogate the potency of various compounds towards different target genes. A high-throughput real time quantitative PCR (RT-qPCR) assay was developed to measure these two isoforms of the mRNA (CJ and AJ) for an exemplary gene, HTT, together with a control housekeeping gene, GAPDH or GUSB or PPIA, used for normalization. Briefly, the A673 or K562 cell line was treated with various compounds described herein (e.g., compounds of Formula (I)). After treatment, the levels of the HTT mRNA targets were determined from each sample of cell lysate by cDNA synthesis followed by qPCR.
(§2) The A673 cell line was cultured in DMEM with 10% FBS. Cells were diluted with full growth media and plated in a 96-well plate (15,000 cells in 100 ul media per well). The plate was incubated at 37° C. with 5% CO2 for 24 hours to allow cells to adhere. An 11-point 3-fold serial dilution of the compounds was made in DMSO then diluted in media in an intermediate plate. Compounds were transferred from the intermediate plate to the cell plate with the top dose at a final concentration of 10 uM in the well. Final DMSO concentration was kept at or below 0.25%. The cell plate was returned to the incubator at 37° C. with 5% CO2 for an additional 24 hours.
(§3) The K562 cell line was cultured in IMDM with 10% FBS. For K562, cells were diluted with full growth media and plated in either a 96-well plate (50,000 cells in 50 uL media per well) or a 384-well plate (8,000-40,000 cells in 45 uL media per well). An 11-point 3-fold serial dilution of the compounds were made in DMSO then diluted in media in an intermediate plate. Compound was transferred from the intermediate plate to the cell plate with the top dose at a final concentration of 10 uM in the well. Final DMSO concentration was kept at or below 0.25%. Final volume was 100 uL for 96-well plate and 50 uL for 384-well plate. The cell plate was then placed in an incubator at 37° C. with 5% CO2 for 24 hours.
(§4) The cells were then gently washed with 50 uL-100 uL cold PBS before proceeding to addition of lysis buffer. 30 uL-50 uL of room temperature lysis buffer with DNAse I (and optionally RNAsin) was added to each well. Cells were shaken/mixed thoroughly at room temperature for 5-10 minutes for lysis to take place and then 3 uL-5 uL of room temperature stop solution was added and wells were shaken/mixed again. After 2-5 minutes, the cell lysate plate was transferred to ice for RT-qPCR reaction setup. The lysates could also be frozen at −80° C. for later use.
(§5) In some cases, a direct lysis buffer was used. An appropriate volume of 3× lysis buffer (10 mM Tris, 150 mM NaCl, 1.5%-2.5% Igepal and 0.1-1 U/uL RNAsin, pH 7.4) was directly added to either K562 or A673 cells in media and mixed by pipetting 3 times. The plates were then incubated at room temperature with shaking/rocking for 20-50 minutes to allow for lysis to take place. After this time, the cell lysate plate was transferred to ice to set up for the RT-qPCR reactions. The lysates could also be frozen at −80° C. for later use.
(§6) To set up 10 uL RT-qPCR reactions, cell lysates were transferred to 384-well qPCR plates containing the master mix according to the table below. The plates were sealed, gently vortexed, and spun down before the run. The volumes were adjusted accordingly in some instances where the reaction was carried in 20 uL. The table below summarizes the components of the RT-qPCR reactions:
(§7) The RT-qPCR reaction was performed using a QuantStudio (ThermoFisher) under the following fast cycling conditions. […]

HTT CJ mRNA = assay: Gene panel canonical junction qPCR assay, HTT; details: decrease in CJ mRNA levels, RT-qPCR
Protocol: as §1, §2, §3, §4, §5, §6, §7

HTT mRNA = assay: RT-qPCR splicing assay for HTT mRNA isoforms (canonical junction CJ and alternative junction AJ); details: A673 or K562 cell line, 24 hours compound treatment; for IC50: decrease in CJ mRNA; for AC50: increase in AJ mRNA
Protocol: as §1
Cells-to-CT 1-step kit: ThermoFisher A25602, Cells-to-CT lysis reagent: ThermoFisher 4391851C, TaqMan™ Fast Virus 1-Step Master Mix: ThermoFisher 4444436 GAPDH: VIC-PL, ThermoFisher 4326317E (Assay: Hs99999905_m1)—used for K562/suspension cell lines GUSB: VIC-PL, ThermoFisher 4326320E (Assay: Hs99999908_m1)—used for K562/suspension cell lines PPIA: VIC-PL, ThermoFisher 4326316E (Assay: Hs99999904_m1)—used for A673/adherent cell lines
as §2, §3, §4
as §5, with “use. […]” for “use.”

SMN2 CJ mRNA = assay: Gene panel canonical junction qPCR assay, SMN2; details: decrease in CJ mRNA levels, RT-qPCR
Protocol: as §1, §2, §3, §4, §5, §6, §7

Row | SMILES | IC50 (Target C CJ mRNA) [nM] | IC50 (HTT CJ mRNA) [nM] | IC50 (HTT mRNA) [nM] | AC50 (HTT mRNA) [nM] | IC50 (SMN2 CJ mRNA) [nM]
1 | Cc1cn(-c2ccc3c(c2)COc2nc(N(C)[C@@H]4C[C@H]5CC[C@@H](C4)N5)ccc2-3)cn1 [Compound 164] | 100 to 1000 | < 100 | < 100 | < 100 | < 100
2 | c1cnn(-c2ccc3c(c2)OCc2nc(N[C@@H]4C[C@H]5CC[C@@H](C4)N5)ccc2-3)c1 [Compound 135, (1R,3S,5S)—N-[8-(pyrazol-1-yl)-5H-chromeno[3,4-b]pyridin-3-yl]-8-azabicyclo[3.2.1]octan-3-amine] | 1000 to 10000 | 1000 to 10000 | 1000 to 10000 | 1000 to 10000 | 1000 to 10000
3 | c1cnn(-c2ccc3c(c2)COc2nc(NC4CNC4)ccc2-3)c1 [Compound 166] | > 10000 | > 10000 | > 10000 | > 10000 | 1000 to 10000
4 | CN(c1ccc2c(n1)OCc1cc(-c3cnn(C)c3)ccc1-2)[C@@H]1C[C@H]2CC[C@@H](C1)N2 [Compound 150] | 100 to 1000 | < 100 | < 100 | < 100 | > 10000
5 | c1cnn(-c2ccc3c(c2)COc2nc(N4CCC5(CCNCC5)C4)ccc2-3)c1 [Compound 182] | > 10000 | > 10000 | > 10000 | > 10000 | > 10000
6 | CN(c1ccc2c(n1)OCc1cc(-n3cccn3)ccc1-2)C1CCNCC1 [Compound 175] | > 10000 | > 10000 | > 10000 | 1000 to 10000 | 1000 to 10000
7 | CC1(C)CC(Oc2ccc3c(n2)OCc2cc(-n4cccn4)ccc2-3)CCN1 (centres unmarked) [Compound 186] | > 10000 | 1000 to 10000 | 1000 to 10000 | 1000 to 10000 | 100 to 1000
8 | c1cnn(-c2ccc3c(c2)COc2nc(N4CCCC5(CNC5)C4)ccc2-3)c1 [Compound 181] | > 10000 | > 10000 | > 10000 | > 10000 | > 10000
9 | CN(C)[C@H]1[C@@H]2CN(c3ccc4c(n3)OCc3cc(-n5cccn5)ccc3-4)C[C@@H]21 [Compound 197] | > 10000 | 1000 to 10000 | 1000 to 10000 | > 10000 | > 10000
10 | CN1C[C@@H]2CN(c3ccc4c(n3)OCc3cc(-n5cccn5)ccc3-4)C[C@@H]2C1 [Compound 170] | > 10000 | 1000 to 10000 | 1000 to 10000 | 1000 to 10000 | 1000 to 10000
11 | CN(c1ccc2c(n1)OCc1cc(-n3ccnc3)ccc1-2)[C@@H]1C[C@H]2CC[C@@H](C1)N2 [Compound 163] | 100 to 1000 | < 100 | < 100 | < 100 | < 100
12 | CN(c1ccc2c(n1)OCc1cc(-c3cnc(=O)[nH]c3)ccc1-2)[C@@H]1C[C@H]2CC[C@@H](C1)N2 [Compound 161] | > 10000 | > 10000 | > 10000 | > 10000 | > 10000
13 | c1cnn(-c2ccc3c(c2)OCCc2cc(N[C@@H]4C[C@H]5CC[C@@H](C4)N5)ccc2-3)c1 [Compound 139, (1R,3S,5S)—N-[5-(pyrazol-1-yl)-8-oxatricyclo [9.4.0.0^[2,7]]pentadeca-1(11),2(7),3,5,12,14-hexaen-13-yl]-8-azabicyclo [3.2.1] octan-3-amine] | > 10000 | > 10000 | > 10000 | > 10000 | > 10000
14 | CN(c1ccc2c(c1)CCOc1cc(-n3cccn3)ccc1-2)[C@@H]1C[C@H]2CC[C@@H](C1)N2 [Compound 113] | > 10000 | > 10000 | > 10000 | > 10000 | > 10000
15 | CN(c1cnc2c(n1)OCc1cc(-c3cn[nH]c3)ccc1-2)C1CC(C)(C)NC(C)(C)C1 [Compound 142, N,2,2,6,6-pentamethyl-N-[8-(1H-pyrazol-4-yl)-6H-isochromeno[3,4-b]pyrazin-3-yl]piperidin-4-amine] | 1000 to 10000 | 100 to 1000 | 100 to 1000 | 100 to 1000 | 100 to 1000
16 | c1cnn(-c2ccc3c(c2)COc2nc(N[C@@H]4C[C@H]5CC[C@@H](C4)N5)ccc2-3)c1 [Compound 179] | 100 to 1000 | 100 to 1000 | 100 to 1000 | 100 to 1000 | 100 to 1000
17 | COc1cc(-c2ccc3c(c2)COc2nc(N(C)[C@@H]4C[C@H]5CC[C@@H](C4)N5)ccc2-3)ccn1 [Compound 156] | 100 to 1000 | < 100 | < 100 | < 100 | 100 to 1000
18 | CN(c1ccc2c(n1)COc1cc(-n3cccn3)ccc1-2)C1CC(C)(C)NC(C)(C)C1 [Compound 125, N,2,2,6,6-pentamethyl-N-[8-(pyrazol-1-yl)-5H-chromeno[3,4-b]pyridin-3-yl]piperidin-4-amine] | > 10000 | > 10000 | > 10000 | > 10000 | > 10000
19 | CN(c1ccc2c(n1)OCc1cc(-c3cnn(C)c(=O)c3)ccc1-2)[C@@H]1C[C@H]2CC[C@@H](C1)N2 [Compound 160] | < 100 | < 100 | < 100 | < 100 | < 100
20 | CN(c1cnc2c(n1)OCc1cc(-c3cn[nH]c3)ccc1-2)[C@@H]1C[C@H]2CC[C@@H](C1)N2 [Compound 144, (exo)-N-methyl-N-[8-(1H-pyrazol-4-yl)-6H-isochromeno[3,4-b]pyrazin-3-yl]-8-azabicyclo[3.2.1]octan-3-amine] | 100 to 1000 | 100 to 1000 | 100 to 1000 | 100 to 1000 | > 10000
21 | CN(c1ccc2c(n1)OCc1cc(-n3cccn3)ccc1-2)[C@@H]1C[C@H]2CC[C@@H](C1)N2 [Compound 149, (exo)-N-methyl-N-[8-(pyrazol-1-yl)-6H-isochromeno[3,4-b]pyridin-3-yl]-8-azabicyclo[3.2.1]octan-3-amine] | 100 to 1000 | 100 to 1000 | 100 to 1000 | < 100 | 100 to 1000
22 | CN(c1ccc2c(n1)OCc1cc(-c3cn[nH]c3)ccc1-2)C1CCNCC1 [Compound 116, N-Methyl-N-[8-(1H-pyrazol-4-yl)-6H-isochromeno[3,4-b]pyridin-3-yl]piperidin-4-amine] | 100 to 1000 | 100 to 1000 | 100 to 1000 | 1000 to 10000 | 100 to 1000
